Target: T1, recombinant human liver GK (FLAG fusion protein) (Homo sapiens, UniProt P35557)
T1 construct: made in house; host or cells: E. coli
T1 sequence (P35557 1-466 isoform P35557-2): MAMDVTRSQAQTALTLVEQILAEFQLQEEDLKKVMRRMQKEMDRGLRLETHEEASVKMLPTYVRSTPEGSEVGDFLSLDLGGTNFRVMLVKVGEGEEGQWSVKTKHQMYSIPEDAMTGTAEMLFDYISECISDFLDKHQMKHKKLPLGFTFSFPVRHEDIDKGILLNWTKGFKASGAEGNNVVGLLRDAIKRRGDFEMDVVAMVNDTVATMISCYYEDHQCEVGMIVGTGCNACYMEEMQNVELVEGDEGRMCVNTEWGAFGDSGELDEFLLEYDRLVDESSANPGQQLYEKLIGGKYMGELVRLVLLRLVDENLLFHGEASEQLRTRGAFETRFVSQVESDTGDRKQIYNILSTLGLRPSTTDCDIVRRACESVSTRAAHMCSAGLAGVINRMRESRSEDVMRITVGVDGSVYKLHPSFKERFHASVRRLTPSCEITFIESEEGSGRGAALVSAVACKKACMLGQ
Experiment: Glucokinase (GK) activation assay, G6PDH-coupled Thio-NADH absorbance at 405 nm
Assay type: biochemical
Settings: final glucose concentration 2.5 mM, 30° C.; for EC50: GK activation; for Emax: OD level of DMSO control set as 100%
Text: The excellent glucokinase-activating effect of the compounds of formula (I) may be determined by a method described in references (for example, Diabetes, Vol. 45, pp. 1671-1677, 1996), or in accordance with it.
The glucokinase activity may be determined not by directly measuring glucose-6-phosphate but by measuring the level of Thio-NADH, which is produced when a reporter enzyme, glucose-6-phosphate dehydrogenase produces phosphogluconolactone from glucose-6-phosphate, and based on the level, the level of glucokinase activation may be determined.
In this assay, used was a recombinant human liver GK, which was expressed by E. coli as a FLAG fusion protein therein and was purified by ANTIFLAG M2 AFFINITY GEL (Sigma).
Using a flat-bottomed 96-well plate, the assay was carried out at 30° C. 69 μl of an assay buffer (25 mM Hepes Buffer/pH=7.2, 2 mM MgCl2, 1 mM ATP, 0.5 mM TNAD, 1 mM dithiothreitol) was put into the plate, and 1 μl of a DMSO solution of the compound or DMSO alone as a control was added thereto. Next, 20 μl of an enzyme mixture (FLAG-GK, 20 U/ml G6PDH) cooled in ice was added to it, and 10 μl of a substrate, 25 mM glucose was added to it, and the reaction was initiated (final glucose concentration=2.5 mM).
After the start of the reaction, the increase in the absorbance at 405 nm was measured for 12 minutes at intervals of 30 seconds, and the increase for the first 5 minutes was used for evaluating the compound tested. FLAG-GK was added so that the absorbance increase after 5 minutes in the presence of 1% DMSO could be from 0.04 to 0.06.
The OD level of the DMSO control was set as 100%; and the OD level of the test compound at different concentrations was determined. From the OD level at each concentration, Emax (%) and EC50 (μM) were computed and used as the index of the GK-activating potency of the compound.

SMILES | EC50 [nM] | Emax [%]
CCS(=O)(=O)c1ccc(Oc2cc3[nH]c(-c4ccccn4)nc3cc2C2OCCO2)cc1 [Example 1, 5-(1,3-dioxolan-2-yl)-6-(4-(ethylsulfonyl)phenoxy)-2-pyridin-2-yl-1H-benzimidazole] | 1180 | 923
Cc1nc(-c2ccc(Oc3cc4[nH]c(-c5ccccn5)nc4cc3C3CCCO3)cn2)no1 (centres unmarked) [Example 17, 5-(tetrahydrofuran-2-yl)-6-(6-(5-methyl-(1,2,4)oxadiazol-3-yl)-pyridin-3-yloxy)-2-pyridin-2-yl-1H-benzimidazole] | 1400 | –
CCS(=O)(=O)c1ccc(Oc2cc3[nH]c(-c4cnccn4)nc3cc2C2CCC(=O)O2)cc1 (centres unmarked) [Example 23, 5-(6-(4-(ethylsulfonyl)phenoxy)-2-pyrazin-2-yl-1H-benzimidazol-5-yl)dihydrofuran-2(3H)-one] | 1420 | –
CCS(=O)(=O)c1ccc(Oc2cc3[nH]c(-c4ccccn4)nc3cc2C2OC(=O)N(C)C2=O)cc1 (centres unmarked) [Example 31, 5-(6-(4-(ethylsulfonyl)phenoxy)-2-pyridin-2-yl-1H-benzimidazol-5-yl)-3-methyl-1,3-oxazolidine-2,4-dione] | 1580 | –

Next, values leading:

EC50 [nM] | Emax [%] | SMILES
600 | – | CCS(=O)(=O)c1ccc(Oc2cc3[nH]c(-c4ccccn4)nc3cc2C2CCCS2)cc1 (centres unmarked) [Example 29-1, 5-(tetrahydro-2-thienyl)-6-(4-(ethylsulfonyl)phenoxy)-2-pyridin-2-yl-1H-benzimidazole]
880 | 978 | CCS(=O)(=O)c1ccc(Oc2cc3[nH]c(-c4ccccn4)nc3cc2C2CCOC2=O)cc1 (centres unmarked) [Example 36, 3-(6-(4-(ethylsulfonyl)phenoxy)-2-pyridin-2-yl-1H-benzimidazol-5-yl)dihydrofuran-2(3H)-one]

Reference: patent US7994331B2, “Heterocycle-substituted benzimidazole derivative” (MSD K.K., priority 2005, dated 2011)
